Assay [1] deals with T1, hTLR7 (human Toll-like receptor 7) (Homo sapiens, UniProt Q9NYK1).
T1 construct: host or cells: HEK-Blue hTLR7 (HEK293-derived reporter cells)
T1 sequence (Q9NYK1 27-1049): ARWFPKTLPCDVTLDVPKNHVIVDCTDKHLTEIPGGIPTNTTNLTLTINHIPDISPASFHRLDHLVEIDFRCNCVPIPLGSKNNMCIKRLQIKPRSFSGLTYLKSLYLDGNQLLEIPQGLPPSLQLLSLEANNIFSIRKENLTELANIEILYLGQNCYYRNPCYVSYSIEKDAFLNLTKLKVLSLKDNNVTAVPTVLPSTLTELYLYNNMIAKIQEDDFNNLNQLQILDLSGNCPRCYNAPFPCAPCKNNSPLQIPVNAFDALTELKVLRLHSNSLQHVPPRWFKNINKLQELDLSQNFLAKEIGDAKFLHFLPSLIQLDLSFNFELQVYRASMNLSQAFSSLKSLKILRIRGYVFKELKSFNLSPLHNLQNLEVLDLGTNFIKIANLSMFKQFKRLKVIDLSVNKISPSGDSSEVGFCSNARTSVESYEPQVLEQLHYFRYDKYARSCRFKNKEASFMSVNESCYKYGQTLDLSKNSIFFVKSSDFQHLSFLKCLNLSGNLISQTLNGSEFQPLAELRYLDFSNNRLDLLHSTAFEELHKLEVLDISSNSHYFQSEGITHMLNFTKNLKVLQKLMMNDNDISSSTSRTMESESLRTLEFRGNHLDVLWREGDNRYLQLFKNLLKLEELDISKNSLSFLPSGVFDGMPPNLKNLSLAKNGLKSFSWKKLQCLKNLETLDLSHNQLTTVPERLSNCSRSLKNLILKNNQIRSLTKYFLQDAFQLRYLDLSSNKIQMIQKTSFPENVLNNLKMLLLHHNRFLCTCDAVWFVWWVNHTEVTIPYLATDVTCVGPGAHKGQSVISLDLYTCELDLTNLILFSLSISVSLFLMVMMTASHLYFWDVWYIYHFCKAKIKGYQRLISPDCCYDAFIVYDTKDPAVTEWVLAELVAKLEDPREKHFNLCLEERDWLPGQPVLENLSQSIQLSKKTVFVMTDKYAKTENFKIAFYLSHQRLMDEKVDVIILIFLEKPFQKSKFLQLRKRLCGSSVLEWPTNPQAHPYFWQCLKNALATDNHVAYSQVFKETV
Description: HEK-Blue hTLR7 reporter assay (QUANTI-Blue, OD650). The assay is classed as cell-based. The following applies: HEK-Blue hTLR7 cells, 24 h, read-out: Reporter assay TLR7 EC50. The method, then:
In this example, the agonistic activity of the compounds of the present application on hTLR7 (human Toll-like receptor 7) and hTLR8 (human Toll-like receptor 8) was assessed; the induction activity of the compounds on human PBMCs for TNF-α and IFN-α production was assessed in human PBMCs (human peripheral blood mononuclear cells).
All compounds were formulated in DMSO into 30 mM stock solutions and preserved at 4° C. The reference compound ([…], Cat. No. tlrl-r848-5) was purchased from InvivoGen and formulated into a 5 mg/mL stock solution in DMSO and preserved in a freezer at −20° C. HEK-Blue hTLR7 and HEK-Blue hTLR8 cell lines were purchased from InvivoGen, and human PBMCs were purchased from Shanghai Saily Biotechnology Co., Ltd. (Cat. No. XFB—HP100B).
The major instruments used in this study were multifunctional microplate reader Flexstation III (Molecular Device), Envision (Perkin Elmer), M2e (Molecular Device), and Echo555 (Labcyte). 2.1 Agonistic activity of compounds on hTLR7 (human Toll-like receptor 7) and hTLR8 (human Toll-like receptor 8)
Compound dilution: The compounds of the present application are diluted in DMSO, for example, to about 15 mM. The reference compound was added to the plates in sequence after dilution. The compounds were serially 3-fold diluted to 10 concentrations and added to 96-well plates in duplicate.
For the negative control wells, DMSO was added at 0.2 μL/well, and the reference compound was added to the positive control wells. The final concentration of DMSO was 0.2%.
Cell plating: When an 80% confluence of HEK Blue hTLR7&8 cells in the culture flask was observed under a microscope, the culture medium was discarded, 10 mL of detection medium was added, and the cells were separated by pipetting. The cells were counted on a cytometer and diluted to 500,000 cells/mL. The cells were plated at 100 μL/50,000 cells/well in the 96-well plates containing the compounds. The compounds and cells were co-incubated at 37° C. in a 5% CO2 incubator for 24 hours.
Compound activity detection: 20 μL of cell supernatant was taken from each well and added to a plate containing QUANTI-Blue™ reagent at 180 μL/well. The plate was incubated at 37° C. for 1 hour, and the absorbance at 650 nm (OD650) was measured on the multifunctional microplate reader Flexstation III.
Compound activity data analysis: The OD650 values were analyzed by GraphPad Prism software and fitted to give dose-response curves of the compounds. The EC50 values of compounds were calculated.
In general terms: Reporter assays use an easily measured gene product as a stand-in for the process of interest.

The test system of assay [2] is IFN-α production in human PBMCs. Description: Induction of IFN-α in human PBMCs (ELISA). Format: cell-based. The following applies: PBMC, 24 h, read-out: PBMC assay IFNa EC50. The method, then: In this example, the induction activity of the compounds of the present application on human PBMCs for TNF-α and IFN-α production was assessed in human PBMCs (human peripheral blood mononuclear cells). The human PBMCs were purchased from Shanghai Saily Biotechnology Co., Ltd. (Cat. No. XFB—HP100B). PBMC cells were treated with the compounds. The compounds of the present application are diluted in DMSO, for example, to about 15 mM. The reference compound was added to the plates in sequence after diluted to 5 mg/mL. The compounds were serially 3- or 4-fold diluted to 8 concentrations and added to plates in duplicate (Table 2-1 for serial 3-fold dilutions and Table 2-2 for serial 4-fold dilutions). For the negative control wells, DMSO was added at 0.4 μL/well, and a 5 mg/mL reference compound solution was added to the positive control wells at 0.4 μL/well. The final concentration of DMSO was 0.2%. Frozen human PBMCs in cryopreservation tubes were quickly thawed in a 37° C. water bath and transferred into 50-mL centrifuge tubes. Prewarmed RPMI1640 medium was gradually added and the mixture was well mixed and centrifuged for 15 min before the supernatant was discarded. The cells were resuspended in a culture medium and counted. The cell suspension was adjusted to 2.5×10^6 cells/mL with the culture medium. Diluted cells were added at 200 μL/500,000 cells/well in 96-well plates containing the compounds. The cell plates were incubated at 37° C./5% CO2 for 24 h.
The plate was washed 4 times, then the detection antibody was added. […] The plate was washed 4 additional times, then the enzyme was added. […] Termination of reaction: The reaction was terminated by quickly adding the stop solution at 100 μL/well. Plate reading: The reading at wavelength 450 nm was detected by an M2e instrument within 10 min after the termination.
Compound activity data analysis: The OD450 values were converted to TNF-α and IFN-α contents by GraphPad Prism software analysis and fitted to give dose-response curves of the compounds. The EC50 values for the compounds were calculated, where the Emax values are the maximal values for TNF-α and IFN-α.

Where [3] appears, read: serial 4-fold dilutions, class symbols.

We go through 26 molecules from patent US20250059141A1, “TLR MODULATOR AND USE THEREOF” (DUALITY BIOLOGICS (SUZHOU) CO., LTD., priority 2021, published 2025).

Read-outs that look alike come from different tables or passages of the source.

One may read the EC50 as the concentration that produces a half-maximal response. `CCCN(OCc1ccc(N)cc1)C(=O)C1=Cc2ccc(-c3ccc(C(=O)N4CC[C@@H](O)C4)cc3)cc2N=C(N)C1` [Compound 42]: the EC50 is greater than 1 µM in assay [1] (class symbols), 0.0483 µM in assay [2] (serial 3-fold dilutions) and greater than 0.5 µM in assay [2] (setting [3]).
Take `CCCN(OCc1ccc(N)cc1)C(=O)C1=Cc2ccc(C(=O)N[C@@H](C)c3ccccc3)cc2N=C(N)C1` [Compound 77]: the EC50 in assay [1] (class symbols) was 0.1 to 1 µM; in assay [2] (setting [3]) it was 0.01 to 0.05 µM.
In the same order, the values of `CCCN(OCc1ccc(N)cc1)C(=O)C1=Cc2ccc(-c3cncc(S(=O)(=O)N4CCC(O)CC4)c3)cc2N=C(N)C1` [Compound 71] are 0.1 to 1 µM and 0.01 to 0.05 µM.
As to `CCCN(OCc1ccc(N)cc1)C(=O)C1=Cc2ccc(-c3cncc(N)c3)cc2N=C(N)C1` [Compound 52], the figures for the EC50 in assay [1] and in assay [2] (serial 3-fold dilutions) were 0.355 µM and 0.00658 µM, respectively.
In the case of `CCCN(OCc1ccc(N)cc1)C(=O)C1=Cc2ccc(-c3cncc(S(=O)(=O)NCCO)c3)cc2N=C(N)C1` [Compound 70], the EC50 in assay [1] (class symbols) was 0.1 to 1 µM; in assay [2] (setting [3]), 0.01 to 0.05 µM.
In the same order, the values of `CCCN(OCc1ccc(N)cc1)C(=O)C1=Cc2ncc(-c3cncc(CO)c3)cc2N=C(N)C1` [Compound 61] are 0.1 to 1 µM and 0.01 to 0.05 µM.
The corresponding values for `CCCN(OCc1ccc(N)cc1)C(=O)C1=Cc2ccc(C(=O)Nc3ccc4c(c3)CNC4)cc2N=C(N)C1` [Compound 90] are greater than 1 µM and 0.05 to 0.5 µM.
For the molecule `CCCN(OCc1ccc(N)cc1)C(=O)C1=Cc2ccc(-c3ccc(C#N)nc3)cc2N=C(N)C1` [Compound 51], the figures for the EC50 in assay [1] and in assay [2] (serial 3-fold dilutions) were 0.428 µM and 0.142 µM, respectively.
Regarding `CCCN(OCc1ccc(N)cc1)C(=O)C1=Cc2ccc(-c3cccc(S(=O)(=O)N4CC(O)C4)c3)cc2N=C(N)C1` [Compound 41], the results for the EC50 in assay [1], in assay [2] (serial 3-fold dilutions) and in assay [2] (setting [3]) were 2.24 µM, 0.0311 µM and 0.05 to 0.5 µM, respectively.
As to `CCCN(OCc1ccc(N)cc1)C(=O)C1=Cc2ccc(C(=O)Nc3cccc(CN)c3)cc2N=C(N)C1` [Compound 86], the concentration for a half-maximal effect (EC50) in assay [1] (class symbols) was greater than 1 µM; in assay [2] (setting [3]), 0.05 to 0.5 µM.
For the molecule `CCCN(OCc1ccc(N)cc1)C(=O)C1=Cc2ccc(C(=O)N3CCN(c4ccccc4)CC3)cc2N=C(N)C1` [Compound 97], the EC50 in assay [1] (class symbols) is greater than 1 µM; in assay [2] (setting [3]), greater than 0.5 µM.
The corresponding values for `CCCN(OCc1ccc(N)cc1)C(=O)C1=Cc2ccc(-c3cccc(S(=O)(=O)N4CCOCC4)c3)cc2N=C(N)C1` [Compound 68] are 0.1 to 1 µM and 0.01 to 0.05 µM.
Consider `NC1=Nc2cc(-c3cncc(CO)c3)ccc2C=C(C(=O)N(CCC(F)(F)F)OCc2ccc(N)cc2)C1` [Compound 58], for which the results for the EC50 in assay [1] (class symbols) and in assay [2] (setting [3]) were 0.1 to 1 µM and 0.01 to 0.05 µM, respectively.
In the case of `CCCN(OCc1ccc(N)cc1)C(=O)C1=Cc2ccc(C(=O)N3CCC(O)C3)cc2N=C(N)C1` (stereo not drawn) [Compound 46], the EC50 in assay [1] (class symbols) is greater than 1 µM; in assay [2] (setting [3]), 0.05 to 0.5 µM.
The corresponding values for `CCCN(OCc1ccc(N)cc1)C(=O)C1=Cc2ccc(C(=O)NC3COC3)cc2N=C(N)C1` [Compound 81] are greater than 1 µM and 0.01 to 0.05 µM.
For the molecule `CCCN(OCc1ccc(N)cc1)C(=O)C1=Cc2ccc(-c3ccc(N4CCOCC4)nc3)cc2N=C(N)C1` [Compound 55], the EC50 in assay [1] was 0.685 µM; in assay [2] (serial 3-fold dilutions) it was 0.0434 µM.
Regarding `CCCN(OCc1ccc(N)cc1)C(=O)C1=Cc2ccc(C(=O)N[C@H]3C[C@@H]3c3ccccc3)cc2N=C(N)C1` [Compound 78], the EC50 in assay [1] (class symbols) was 0.1 to 1 µM; in assay [2] (setting [3]), no more than 0.01 µM.
As for `CCCN(OCc1ccc(N)cc1OC)C(=O)C1=Cc2ncc(-c3cncc(CO)c3)cc2N=C(N)C1` [Compound 60], the EC50 fell in the range of 0.1 to 1 µM in assay [1] (class symbols) and 0.05 to 0.5 µM in assay [2] (setting [3]).
In the same order, the values of `CCCN(OCc1ccc(N)cc1)C(=O)C1=Cc2ccc(-c3cncc(C(F)(F)F)c3)cc2N=C(N)C1` [Compound 53] are 0.1 to 1 µM and 0.05 to 0.5 µM.
The corresponding values for `CCCN(OCc1ccc(N)cc1)C(=O)C1=Cc2ccc(C(=O)NC3CCCCC3)cc2N=C(N)C1` [Compound 82] are greater than 1 µM and 0.05 to 0.5 µM.
In the case of `CCCN(OCc1ccc(N)cc1)C(=O)C1=Cc2ccc(-c3cccc(S(=O)(=O)NCCO)c3)cc2N=C(N)C1` [Compound 64], the EC50 in assay [1] (class symbols) fell in the range of 0.1 to 1 µM; in assay [2] (setting [3]) it was 0.01 to 0.05 µM.
As for `CCCN(OCc1ccc(N)cc1)C(=O)C1=Cc2ccc(-c3cncc(S(C)(=O)=O)c3)cc2N=C(N)C1` [Compound 56], the figures for the EC50 in assay [1] and in assay [2] (serial 3-fold dilutions) were 0.664 µM and 0.0285 µM, respectively.
On to `CCCN(OCc1ccc(N)cc1)C(=O)C1=Cc2ccc(C(=O)N3CC(Oc4ccccc4)C3)cc2N=C(N)C1` [Compound 94], for which the results for the EC50 in assay [1] (class symbols) and in assay [2] (setting [3]) were 0.1 to 1 µM and 0.05 to 0.5 µM, respectively.
In the same order, the values of `CCCN(OCc1ccc(N)cc1)C(=O)C1=Cc2ccc(-c3cnc4c(c3)C(=O)OC4)nc2N=C(N)C1` [Compound 63] are 0.1 to 1 µM and 0.01 to 0.05 µM.
Turning to `CCCN(OCc1ccc(N)cc1)C(=O)C1=Cc2ccc(-c3cccc(S(N)(=O)=O)c3)cc2N=C(N)C1` [Compound 35], the EC50 was found to be 0.758 µM in assay [1] and 0.00295 µM in assay [2] (serial 3-fold dilutions).
As for `CCCN(OCc1ccc(N)cc1)C(=O)C1=Cc2ccc(C(=O)NC(C)(C)c3ccccc3)cc2N=C(N)C1` [Compound 76], the figures for the EC50 in assay [1] (class symbols) and in assay [2] (setting [3]) were 0.1 to 1 µM and 0.01 to 0.05 µM, respectively.
